Reference: US20190374627A1, “TARGET PEPTIDES FOR CANCER THERAPY AND DIAGNOSTICS” (priority 2016, published 2019)
Entries after “also recorded” stand apart in the source; their conditions may differ. Square brackets hold non-standard residues; d marks the D form. Ends that are not written are not given here. pS = N[C@@H](COP(=O)(O)O)C(=O)O

Assays:
CD8^+ T cells (PBMCs) [1] = assay: Intracellular cytokine staining (ICS) of PBMCs after 7 days of stimulation with MHC-I-pP (healthy donors, HH patients); type: cell-based, human
Outline: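 PBMCs or liver lymphocytes from HLA-A*0201-positive healthy donors and hereditary hemochromatosis patients were stimulated for 7 days with HLA-A*0201-restricted phosphopeptides and no added cytokines. After exclusion of doublets and dead cells with a fixable viability dye, CD3^+CD8^+ cells were analysed by intracellular staining for IFN-γ and TNF-α, plus CD107a where needed.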

CD8^+ T cells (PBMCs) [2] = assay: Ex vivo ICS of PBMCs after stimulation for 4 hours with the peptide; type: cell-based, human; details: PBMCs of a patient with hereditary hemochromatosis, 4 hours stimulation
[3] = tested on: expanded TIL / IHL cultures; assay: ICS for MHC-I-pP reactivity of liver-derived lymphocyte cultures after unspecific rapid expansion protocol (REP); type: cell-based, human
[4] = tested on: unexpanded lymphocyte cultures (CD8^+ T cells); assay: ICS for MHC-I-pP reactivity of lymphocyte cultures without expansion (Table 23, No Expansion)
[5] = tested on: expanded lymphocyte cultures from deceased donor livers, cirrhotic livers and HCC; assay: ICS for MHC-I-pP reactivity of liver-derived lymphocyte cultures after phosphopeptide-specific expansion; type: cell-based, human

RVAsPTSGV: IRS2 phosphopeptide, HLA-A*0201 (RVA[pS]PTSGV; listed as Homo sapiens)
Reactive CD8^+ T cell population, HH2 (CD8^+ T cells (PBMCs) [1]; HH patient HH2): 0 (<0.25% reactive CD8^-+ T cells)
Reactive CD8^+ T cell population, HH3 (CD8^+ T cells (PBMCs) [1]; HH patient HH3): 0 (<0.25% reactive CD8^-+ T cells)
Reactive CD8^+ T cell population, HH6 (CD8^+ T cells (PBMCs) [1]; HH patient HH6): 0 (<0.25% reactive CD8^-+ T cells)
Reactive CD8^+ T cell population, HH8 (CD8^+ T cells (PBMCs) [1]; HH patient HH8): 0 (<0.25% reactive CD8^-+ T cells)
Reactive CD8^+ T cell population, HH10 (CD8^+ T cells (PBMCs) [1]; HH patient HH10): 2 (2.5-5.0% reactive CD8^-+ T cells)
Reactive CD8^+ T cell population, HH11 (CD8^+ T cells (PBMCs) [1]; HH patient HH11): 0 (<0.25% reactive CD8^-+ T cells)
Reactive CD8^+ T cell population, HD1 (CD8^+ T cells (PBMCs) [1]; Healthy donor HD1): 0 (<0.25% reactive CD8^-+ T cells)
Reactive CD8^+ T cell population, HD2 (CD8^+ T cells (PBMCs) [1]; Healthy donor HD2): 0 (<0.25% reactive CD8^-+ T cells)
Reactive CD8^+ T cell population, HD3 (CD8^+ T cells (PBMCs) [1]; Healthy donor HD3): 0 (<0.25% reactive CD8^-+ T cells)
Reactive CD8^+ T cell population, HD4 (CD8^+ T cells (PBMCs) [1]; Healthy donor HD4): 0 (<0.25% reactive CD8^-+ T cells)
Reactive CD8^+ T cell population, HD5 (CD8^+ T cells (PBMCs) [1]; Healthy donor HD5): 0 (<0.25% reactive CD8^-+ T cells)
ex vivo CD8^+ T cell response (CD8^+ T cells (PBMCs) [2]): evident ex vivo; also recorded: ex vivo CD8^+ T cell response
Reactive CD8^+ T cells, Non-specific Expansion, Do2 ([3]; Do2): 0 (<0.25% reactive CD8^-+ T cells)
Reactive CD8^+ T cells, Non-specific Expansion, Do4 ([3]; Do4): 0 (<0.25% reactive CD8^-+ T cells)
Reactive CD8^+ T cells, Non-specific Expansion, HH6 ([3]; HH6): 0 (<0.25% reactive CD8^-+ T cells)
Reactive CD8^+ T cells, No Expansion, Do4 ([4]; Do4): 3 (5-7.5% reactive CD8^-+ T cells)
Reactive CD8^+ T cells, No Expansion, HH6 ([4]; HH6): 0 (<0.25% reactive CD8^-+ T cells)
Reactive CD8^+ T cells, pP-specific Expansion, Do2 ([5]; pP-specific Expansion, Do2): 0 (<0.25% reactive CD8^-+ T cells)
Reactive CD8^+ T cells, pP-specific Expansion, Do4 ([5]; pP-specific Expansion, Do4): 2 (2.5-5.0% reactive CD8^-+ T cells)
Reactive CD8^+ T cells, pP-specific Expansion, HH6 ([5]; pP-specific Expansion, HH6): 0 (<0.25% reactive CD8^-+ T cells)
ppCTL response, Deceased Donor Liver Do 2 ([5]; pP-specifically expanded culture, Deceased Donor Liver Do 2): 0 (<0.25% reactive CD8-+ T cells)
ppCTL response, Deceased Donor Liver Do 3 ([5]; pP-specifically expanded culture, Deceased Donor Liver Do 3): 0 (<0.25% reactive CD8-+ T cells)
ppCTL response, Deceased Donor Liver Do 4 ([5]; pP-specifically expanded culture, Deceased Donor Liver Do 4): 2 (2.5-5.0% reactive CD8-+ T cells)
ppCTL response, Deceased Donor Liver Do 6 ([5]; pP-specifically expanded culture, Deceased Donor Liver Do 6): 1 (0.25-2.5% reactive CD8-+ T cells)
ppCTL response, End-stage Liver Cirrhosis IHL 11 ([5]; pP-specifically expanded culture, End-stage Liver Cirrhosis IHL 11): 0 (<0.25% reactive CD8-+ T cells)
ppCTL response, End-stage Liver Cirrhosis IHL 12 ([5]; pP-specifically expanded culture, End-stage Liver Cirrhosis IHL 12): 0 (<0.25% reactive CD8-+ T cells)
ppCTL response, End-stage Liver Cirrhosis IHL 13 ([5]; pP-specifically expanded culture, End-stage Liver Cirrhosis IHL 13): 0 (<0.25% reactive CD8-+ T cells)
ppCTL response, End-stage Liver Cirrhosis IHL 15 ([5]; pP-specifically expanded culture, End-stage Liver Cirrhosis IHL 15): 0 (<0.25% reactive CD8-+ T cells)
ppCTL response, HCC Distal HCC 1 ([5]; pP-specifically expanded culture, HCC 1 Distal): 0 (<0.25% reactive CD8-+ T cells)
ppCTL response, HCC Tumor HCC 1 ([5]; pP-specifically expanded culture, HCC 1 Tumor): 0 (<0.25% reactive CD8-+ T cells)
ppCTL response, HCC Distal HCC 4 ([5]; pP-specifically expanded culture, HCC 4 Distal): 0 (<0.25% reactive CD8-+ T cells)
ppCTL response, HCC Distal HCC 9 ([5]; pP-specifically expanded culture, HCC 9 Distal): 0 (<0.25% reactive CD8-+ T cells)
ppCTL response, HCC Tumor HCC 9 ([5]; pP-specifically expanded culture, HCC 9 Tumor): 0 (<0.25% reactive CD8-+ T cells)
ppCTL response, HCC Distal HCC 12 ([5]; pP-specifically expanded culture, HCC 12 Distal): 0 (<0.25% reactive CD8-+ T cells)
